Results reported in US6096930A, “Herbicidal cyclohexane-1,3-dione derivatives and their preparation process” (Korea Research Institute of Chemical Technology, priority 1994, dated 2000).
Read-outs that look alike come from different tables or passages of the source.

Key:
Type in all cases: in vivo
[1] = system: GLXMX; test: Herbicidal activity, upland test, pre-emergence
Procedure: (§1) The sterilized sandy loam soil is filled in test pot having a surface area of 348 cm^2 for upland test conditions or 115 cm^2 for paddy test species were planted in furrows.
(§2) For the pre-emergent tests, were sprayed on the soil one day after planting test compound in a mixture of acetone and 7 ml of the water containing up to 0.1% Tween 20.
(§3) The concentration of the test compound in solution was varied to give a range of application rates, generally 4.0 kg/ha and submultiples thereof. The pots were placed in a greenhouse and watered regularly at the soil surface for 21 days and herbicidal effects were visually rated by a percent control.
(§4) The herbicidal activity data were taken visually by percent control, wherein 0 signifies no herbicidal effect and 100 signifies complete kill.

[2] = system: AESIN; test: Herbicidal activity, upland test, pre-emergence
Procedure: as §1, §2, §3, §4

[3] = system: SOLNI; test: Herbicidal activity, upland test, pre-emergence
Procedure: as §1, §2, §3, §4

[4] = system: ECHOR; test: Herbicidal activity, upland test, pre-emergence
Procedure: as §1, §2, §3, §4

[5] = system: DIGSA; test: Herbicidal activity, upland test, pre-emergence
Procedure: as §1, §2, §3, §4

[6] = system: BROJA; test: Herbicidal activity, upland test, pre-emergence
Procedure: as §1, §2, §3, §4

[7] = system: GOSHI; test: Herbicidal activity, upland test, pre-emergence
Procedure: as §1, §2, §3, §4

[8] = system: SORBI; test: Herbicidal activity, upland test, pre-emergence
Procedure: as §1, §2, §3, §4

[9] = system: ABUTH; test: Herbicidal activity, upland test, pre-emergence
Procedure: as §1, §2, §3, §4

[10] = system: TRZAW; test: Herbicidal activity, upland test, pre-emergence
Procedure: as §1, §2, §3, §4

[11] = system: ZEAMX; test: Herbicidal activity, upland test, pre-emergence
Procedure: as §1, §2, §3, §4

[12] = system: PANDI; test: Herbicidal activity, upland test, pre-emergence
Procedure: as §1, §2, §3, §4

[13] = system: ORYSA; test: Herbicidal activity, upland test, pre-emergence
Procedure: as §1, §2, §3, §4

[14] = system: MOOVA; test: Herbicidal activity for paddy test
In short: (§5)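 Sterilized sandy loam; 115 cm^2 pot; furrow planting; visual % control, 0–100.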

[15] = system: SAGPY; test: Herbicidal activity for paddy test
In short: as §5

[16] = system: SCPJU; test: Herbicidal activity for paddy test
In short: as §5

[17] = system: ECHOR; test: Herbicidal activity for paddy test
In short: as §5

[18] = system: ORYSA; test: Herbicidal activity for paddy test; conditions: for plant injury at 2 g/ha: 0.002 kg/ha; for plant injury at 8 g/ha: 0.008 kg/ha; for plant injury at 31 g/ha: 0.031 kg/ha; for plant injury at 125 g/ha: 0.125 kg/ha; for plant injury at 500 g/ha: 0.500 kg/ha
In short: as §5

[19] = system: SOLNI; test: Herbicidal activity, upland test, post-emergence
Description: as §1
(§6) The pots for the post-emergent tests were placed in a greenhouse and watered for 9~14 days, then the foliage of test plants was sprayed with a solution of the test compound in a mixture of acetone and water containing a small amount of Tween 20.
(§7) After spraying the plants were kept for one day, then watered regularly for 14 to 21 days, and herbicidal activity data were recorded.
as §4

[20] = system: ECHOR; test: Herbicidal activity, upland test, post-emergence
Description: as §1, §6, §7, §4

[21] = system: BROJA; test: Herbicidal activity, upland test, post-emergence
Description: as §1, §6, §7, §4

[22] = system: GOSHI; test: Herbicidal activity, upland test, post-emergence
Description: as §1, §6, §7, §4

[23] = system: TRZAW; test: Herbicidal activity, upland test, post-emergence
Description: as §1, §6, §7, §4

[24] = system: ORYSA; test: Herbicidal activity, upland test, post-emergence
Description: as §1, §6, §7, §4

[25] = 3 Leaf, read-out: Herbicidal activity, ORYSA (3 Leaf)
[26] = seed, read-out: Herbicidal activity, ORYSA (seed)

CCON=C(CC)C1=C(O)CC(c2c(C)c(C)c3c(c2C)CC(C)(C)C3)CC1=O (stereo not shown) [Compound 2]
Herbicidal activity, GLXMX ([1]; 0.016 kg/ha): 0 % inhibition
Herbicidal activity, GLXMX ([1]; 0.063 kg/ha): 0 % inhibition
Herbicidal activity, GLXMX ([1]; 1.000 kg/ha): 0 % inhibition
Herbicidal activity, GLXMX ([1]; 1.250 kg/ha): 0 % inhibition
Herbicidal activity, AESIN ([2]; 0.016 kg/ha): 0 % inhibition
Herbicidal activity, AESIN ([2]; 0.063 kg/ha): 0 % inhibition
Herbicidal activity, AESIN ([2]; 1.000 kg/ha): 0 % inhibition
Herbicidal activity, AESIN ([2]; 1.250 kg/ha): 0 % inhibition
Herbicidal activity, SOLNI ([3]; 0.016 kg/ha): 0 % inhibition
Herbicidal activity, SOLNI ([3]; 0.063 kg/ha): 0 % inhibition
Herbicidal activity, SOLNI ([3]; 1.000 kg/ha): 0 % inhibition
Herbicidal activity, SOLNI ([3]; 1.250 kg/ha): 0 % inhibition
Herbicidal activity, ECHOR ([4]; 0.016 kg/ha): 0 % inhibition
Herbicidal activity, ECHOR ([4]; 0.063 kg/ha): 40 % inhibition
Herbicidal activity, ECHOR ([4]; 1.000 kg/ha): 100 % inhibition
Herbicidal activity, ECHOR ([4]; 1.250 kg/ha): 100 % inhibition
Herbicidal activity, DIGSA ([5]; 0.016 kg/ha): 0 % inhibition
Herbicidal activity, DIGSA ([5]; 0.063 kg/ha): 60 % inhibition
Herbicidal activity, DIGSA ([5]; 1.000 kg/ha): 100 % inhibition
Herbicidal activity, DIGSA ([5]; 1.250 kg/ha): 100 % inhibition
Herbicidal activity, BROJA ([6]; 0.016 kg/ha): 0 % inhibition
Herbicidal activity, BROJA ([6]; 0.063 kg/ha): 20 % inhibition
Herbicidal activity, BROJA ([6]; 1.000 kg/ha): 100 % inhibition
Herbicidal activity, BROJA ([6]; 1.250 kg/ha): 60 % inhibition
Herbicidal activity, GOSHI ([7]; 0.016 kg/ha): 0 % inhibition
Herbicidal activity, GOSHI ([7]; 0.063 kg/ha): 0 % inhibition
Herbicidal activity, GOSHI ([7]; 1.000 kg/ha): 0 % inhibition
Herbicidal activity, GOSHI ([7]; 1.250 kg/ha): 0 % inhibition
Herbicidal activity, SORBI ([8]; 0.016 kg/ha): 0 % inhibition
Herbicidal activity, SORBI ([8]; 0.063 kg/ha): 0 % inhibition
Herbicidal activity, SORBI ([8]; 1.000 kg/ha): 100 % inhibition
Herbicidal activity, SORBI ([8]; 1.250 kg/ha): 30 % inhibition
Herbicidal activity, ABUTH ([9]; 0.016 kg/ha): 0 % inhibition
Herbicidal activity, ABUTH ([9]; 0.063 kg/ha): 0 % inhibition
Herbicidal activity, ABUTH ([9]; 1.000 kg/ha): 0 % inhibition
Herbicidal activity, ABUTH ([9]; 1.250 kg/ha): 0 % inhibition
Herbicidal activity, TRZAW ([10]; 0.016 kg/ha): 0 % inhibition
Herbicidal activity, TRZAW ([10]; 0.063 kg/ha): 0 % inhibition
Herbicidal activity, TRZAW ([10]; 1.000 kg/ha): 80 % inhibition
Herbicidal activity, TRZAW ([10]; 1.250 kg/ha): 20 % inhibition
Herbicidal activity, ZEAMX ([11]; 0.016 kg/ha): 0 % inhibition
Herbicidal activity, ZEAMX ([11]; 0.063 kg/ha): 0 % inhibition
Herbicidal activity, ZEAMX ([11]; 1.000 kg/ha): 100 % inhibition
Herbicidal activity, ZEAMX ([11]; 1.250 kg/ha): 40 % inhibition
Herbicidal activity, PANDI ([12]; 0.016 kg/ha): 0 % inhibition
Herbicidal activity, PANDI ([12]; 0.063 kg/ha): 50 % inhibition
Herbicidal activity, PANDI ([12]; 1.000 kg/ha): 100 % inhibition
Herbicidal activity, PANDI ([12]; 1.250 kg/ha): 100 % inhibition
Herbicidal activity, ORYSA ([13]; 0.016 kg/ha): 0 % inhibition
Herbicidal activity, ORYSA ([13]; 0.063 kg/ha): 0 % inhibition
Herbicidal activity, ORYSA ([13]; 1.000 kg/ha): 100 % inhibition
Herbicidal activity, ORYSA ([13]; 1.250 kg/ha): 60 % inhibition
pest or weed control at 2 g/ha ([14]; 0.002 kg/ha): 0%
pest or weed control at 8 g/ha ([14]; 0.008 kg/ha): 0%
pest or weed control at 31 g/ha ([14]; 0.031 kg/ha): 0%
pest or weed control at 125 g/ha ([14]; 0.125 kg/ha): 0%
pest or weed control at 500 g/ha ([14]; 0.500 kg/ha): 0%
pest or weed control at 2 g/ha ([15]; 0.002 kg/ha): 0%
pest or weed control at 8 g/ha ([15]; 0.008 kg/ha): 0%
pest or weed control at 31 g/ha ([15]; 0.031 kg/ha): 0%
pest or weed control at 125 g/ha ([15]; 0.125 kg/ha): 0%
pest or weed control at 500 g/ha ([15]; 0.500 kg/ha): 0%
pest or weed control at 2 g/ha ([16]; 0.002 kg/ha): 0%
pest or weed control at 8 g/ha ([16]; 0.008 kg/ha): 0%
pest or weed control at 31 g/ha ([16]; 0.031 kg/ha): 0%
pest or weed control at 125 g/ha ([16]; 0.125 kg/ha): 0%
pest or weed control at 500 g/ha ([16]; 0.500 kg/ha): 0%
pest or weed control at 2 g/ha ([17]; 0.002 kg/ha): 60%
pest or weed control at 8 g/ha ([17]; 0.008 kg/ha): 100%
pest or weed control at 31 g/ha ([17]; 0.031 kg/ha): 100%
pest or weed control at 125 g/ha ([17]; 0.125 kg/ha): 100%
pest or weed control at 500 g/ha ([17]; 0.500 kg/ha): 100%
plant injury at 2 g/ha [18, 25]: 0%
plant injury at 8 g/ha [18, 25]: 0%
plant injury at 31 g/ha [18, 25]: 0%
plant injury at 125 g/ha [18, 25]: 60%
plant injury at 500 g/ha [18, 25]: 100%
plant injury at 2 g/ha [18, 26]: 30%
plant injury at 8 g/ha [18, 26]: 80%
plant injury at 31 g/ha [18, 26]: 100%
plant injury at 125 g/ha [18, 26]: 100%
plant injury at 500 g/ha [18, 26]: 100%
Herbicidal activity, SOLNI ([19]; 0.004 kg/ha): 0 % inhibition
Herbicidal activity, SOLNI ([19]; 0.016 kg/ha): 0 % inhibition
Herbicidal activity, SOLNI ([19]; 0.063 kg/ha): 0 % inhibition
Herbicidal activity, SOLNI ([19]; 1.000 kg/ha): 0 % inhibition
Herbicidal activity, SOLNI ([19]; 1.250 kg/ha): 0 % inhibition
Herbicidal activity, ECHOR ([20]; 0.004 kg/ha): 80 % inhibition
Herbicidal activity, ECHOR ([20]; 0.016 kg/ha): 90 % inhibition
Herbicidal activity, ECHOR ([20]; 0.063 kg/ha): 100 % inhibition
Herbicidal activity, ECHOR ([20]; 1.000 kg/ha): 100 % inhibition
Herbicidal activity, ECHOR ([20]; 1.250 kg/ha): 100 % inhibition
Herbicidal activity, BROJA ([21]; 0.004 kg/ha): 0 % inhibition
Herbicidal activity, BROJA ([21]; 0.016 kg/ha): 0 % inhibition
Herbicidal activity, BROJA ([21]; 0.063 kg/ha): 60 % inhibition
Herbicidal activity, BROJA ([21]; 1.000 kg/ha): 100 % inhibition
Herbicidal activity, BROJA ([21]; 1.250 kg/ha): 100 % inhibition
Herbicidal activity, GOSHI ([22]; 0.004 kg/ha): 0 % inhibition
Herbicidal activity, GOSHI ([22]; 0.016 kg/ha): 0 % inhibition
Herbicidal activity, GOSHI ([22]; 0.063 kg/ha): 40 % inhibition
Herbicidal activity, GOSHI ([22]; 1.000 kg/ha): 70 % inhibition
Herbicidal activity, GOSHI ([22]; 1.250 kg/ha): 50 % inhibition
Herbicidal activity, TRZAW ([23]; 0.004 kg/ha): 0 % inhibition
Herbicidal activity, TRZAW ([23]; 0.016 kg/ha): 0 % inhibition
Herbicidal activity, TRZAW ([23]; 0.063 kg/ha): 40 % inhibition
Herbicidal activity, TRZAW ([23]; 1.000 kg/ha): 100 % inhibition
Herbicidal activity, TRZAW ([23]; 1.250 kg/ha): 100 % inhibition
Herbicidal activity, ORYSA ([24]; 0.004 kg/ha): 0 % inhibition
Herbicidal activity, ORYSA ([24]; 0.016 kg/ha): 20 % inhibition
Herbicidal activity, ORYSA ([24]; 0.063 kg/ha): 40 % inhibition
Herbicidal activity, ORYSA ([24]; 1.000 kg/ha): 100 % inhibition
Herbicidal activity, ORYSA ([24]; 1.250 kg/ha): 100 % inhibition
